{"source": "patent US20200216906A1", "about": "“METHODS AND COMPOSITIONS RELATING TO THE DIAGNOSIS AND TREATMENT OF CANCER” (PRESIDENT AND FELLOWS OF HARVARD COLLEGE, priority 2015, published 2020)", "key": {"[1]": {"tested_on": "Panc02.13 cells expressing vector only (02.13-WT)", "assay": "Kinetic cell growth assay, Panc02.13 cells expressing vector only", "format": "cell-based, human", "conditions": "Homo sapiens", "procedure": "(§1) Panc02.13 cells were used to express YAPS6A (or vector controls) under sparse and dense cultures. Expression was confirmed by confocal microscopy (data not shown). Suppression of the Hippo pathway by expression of non-phospho, active form of YAP (YAPS6A) sensitized pancreatic cancer cells to gemcitabine and 5-FU (FIGS. 6 and 7). Apoptosis was measured by immunobloting with cleaved caspases 3/7 or PARP. Blots were also stained with anti-β-actin for loading control. The effect of Hippo pathway suppression on gemcitabine and 5-FU senstitization was maintained in 3D spheroid culture (FIG. 8). The effects of eleven cytotoxic drugs on the growth of Panc02.13 cells expressing vector only or YAPS6A construct grown under low or high densities were determined (Table 1).\n(§2) The effect of gemcitabine on pancreatic cancer cell growth was studied using a kinetic cell growth assay. Pancreatic cancer cells were plated on 96-well plates (Essen ImageLock, Essen Instruments, MI, US) at varying densities (2-4×10^3 for low density or 15-20×10^3 for high density experiments). Small molecule inhibitors at different doses were added 24 hours after plating and cell confluence was monitored with Incucyte Live-Cell Imaging System and software (Essen Instruments). Confluence was observed every hour for 48-144h or until the control (DMSO only) samples reached 100% confluence.\nas §2, with “Kinetic Cell growth assay. The” for “The”, “(2-4X103” for “(2-4×10^3”, “15-20X103” for “15-20×10^3”, “Incucyte™” for “Incucyte”"}, "ABCG2": {"molecular_target": "T1, ABCG2 (Homo sapiens, UniProt Q9UNQ0)", "T1 sequence (Q9UNQ0 1-655)": "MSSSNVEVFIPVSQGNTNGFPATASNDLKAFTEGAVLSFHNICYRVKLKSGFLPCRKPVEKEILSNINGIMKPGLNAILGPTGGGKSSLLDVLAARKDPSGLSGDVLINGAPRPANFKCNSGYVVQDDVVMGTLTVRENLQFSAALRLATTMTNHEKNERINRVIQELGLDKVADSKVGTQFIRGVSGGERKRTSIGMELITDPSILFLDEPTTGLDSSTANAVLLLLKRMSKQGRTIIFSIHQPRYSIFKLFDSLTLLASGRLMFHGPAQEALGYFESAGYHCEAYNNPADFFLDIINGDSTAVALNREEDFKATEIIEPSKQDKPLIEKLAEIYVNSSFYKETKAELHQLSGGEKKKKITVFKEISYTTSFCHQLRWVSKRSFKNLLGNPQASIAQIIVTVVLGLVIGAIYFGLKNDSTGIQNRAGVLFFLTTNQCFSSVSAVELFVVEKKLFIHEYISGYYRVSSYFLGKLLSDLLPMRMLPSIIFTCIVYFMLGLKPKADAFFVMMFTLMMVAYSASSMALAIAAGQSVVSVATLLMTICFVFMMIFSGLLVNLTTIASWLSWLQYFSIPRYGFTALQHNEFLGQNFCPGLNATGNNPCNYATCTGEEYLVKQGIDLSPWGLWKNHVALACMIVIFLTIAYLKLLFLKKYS", "conditions": "Cusatis and Sparreboom, 2008; cited from earlier work"}, "[2]": {"conditions": "cited from earlier work"}, "[3]": {"tested_on": "Panc02.13 cells expressing YAPS6A construct", "assay": "Kinetic cell growth assay, Panc02.13 cells expressing YAPS6A", "format": "cell-based, human", "conditions": "for EC50: Homo sapiens, YAPS6A construct", "procedure": "as §1, §2\nCell lines (Panc02.13, Panc10.05 or Miapaca2) were transfected with YAPS6A constructs (Addgene) using Lipofectamine™ (Invitrogen, Carlsbad, Calif.) following the manufacturer's instructions and 48 hour post-transfection selected in 5-10 μg/ml Blasticidin (InvivoGen, San Diego, Calif.). The clones screened for YAPS6A expression by Western blot. Stable cell lines were maintained in complete medium and 5 μg/ml Blasticidin.\nas §2, with “Kinetic Cell growth assay. The” for “The”, “(2-4X103” for “(2-4×10^3”, “15-20X103” for “15-20×10^3”, “Incucyte™” for “Incucyte”"}, "[4]": {"tested_on": "Miapaca2-YAPS6A xenografts", "assay": "Mouse xenograft, Miapaca2-YAPS6A", "format": "in vivo", "procedure": "To assess the gemcitabine response to Hippo pathway inactivation in tumors a mouse xenograft model of pancreatic carcinoma cells and patient-derived xenograft (PDX) models from a variety of solid tumors including human cancers from non-small cell lung, esophagus, breast, mesothelium, ovary, colon, head and neck, sarcoma, and cholangiocarcinoma were used (FIG. 30). In mouse xenograft studies, two human pancreatic cancer cell lines (Miapac2 and Panc02.13) expressing GFP or YAPS6A were injected into athymic mice. Both parental or GFP expressing cells grew rapidly, producing palpable tumors in 5-10 days. When the tumors were ˜200 mm^3 (as measured using a caliper), mice were randomized into treatment and control groups. The […] received i.p. saline injections on alternate days for two weeks, and the latter received gemcitabine (20 mg/kg in Miapaca2-YAPS6A and 50 mg/Kg in Panc02.13-YAPS6A cohorts).\nTumorigenicity in Nude Mice. All in vivo experiments were performed using 6-week-old to 8-week-old athymic nude mice. Mice were maintained in laminar flow rooms with constant temperature and humidity. Miapaca2 or Panc02.13 cells were inoculated subcutaneously (s.c.) into each flank of the mice. Cells (2×10^6 in suspension) were injected on day 0, and tumor growth was followed every 2 to 3 days by tumor diameter measurements using vernier calipers. Tumor volumes (V) were calculated using the formula: V=AB2/2 (A, axial diameter; B, rotational diameter). When the outgrowths were • 200 mm^3, mice were divided at random into two groups (control and treated, n=3-8). The treated group received gemcitabine injection or saline control on alternate days (MWF) for 2 weeks.\nIntra-tumor gemcitabine measurements."}, "[5]": {"tested_on": "H2052 mesothelioma cells (LATS2 deletion)", "assay": "Cell growth of H2052 mesothelioma cells", "format": "cell-based"}, "[6]": {"assay": "Stability of gemcitabine in culture and conditioned media", "format": "in vitro ADME", "source_text": "Drug availability mediated by transport or binding or export from the cell is known to be a major determinant of the sensitivity to chemotherapy (O'CONNOR, 2007). […] Furthermore, conditioned media collected from Panc02.13 cells exposed to gemcitabine after 5 days retained 96.7% activity (FIGS. 35A-[…])."}}, "note": "Structures can show the parent of a compound that is named as a salt. Where two headings read alike, the source gives them in different places.", "data": [{"smiles": "Nc1ccn([C@@H]2O[C@H](CO)[C@@H](O)C2(F)F)c(=O)n1", "note": "[Gemcitabine, Gemcitabine hydrochloride]", "values": [{"measurement": "EC50", "setting": "[1]; high density, read-out: High density (EC50, nM) 02.13-WT", "value": 1100, "unit": "nM"}, {"measurement": "EC50", "setting": "[1]; low density, read-out: Low density (EC50, nM) 02.13-WT", "value": 1.6, "unit": "nM"}, {"measurement": "Substrate of ABCG2", "setting": "ABCG2", "value": "substrates of ABCG2"}, {"measurement": "Patients without objective response to treatment", "setting": "[2]; patients treated with gemcitabine", "value": "> 75", "unit": "%"}, {"measurement": "Median overall survival", "setting": "[2]; standard-of-care therapy, pancreatic cancer", "value": "six"}, {"measurement": "EC50", "setting": "[3]; high density, read-out: High density (EC50, nM) 02.13-YAPS6A", "value": 17, "unit": "nM"}, {"measurement": "EC50", "setting": "[3]; low density, read-out: Low density (EC50, nM) 02.13-YAPS6A", "value": 1.7, "unit": "nM"}, {"measurement": "Sensitization by expression of YAPS6A", "setting": "[3]; suppression of the Hippo pathway, high cell density", "value": "sensitized"}, {"measurement": "Growth of xenografts", "setting": "[4]; 20 mg/kg, alternate days for two weeks", "value": "significantly slowed"}, {"measurement": "Induction in apoptosis vs parental controls", "setting": "[4]; cleaved caspase 7 and phosphor-H2aX", "value": "> 2", "unit": "fold"}, {"measurement": "Sensitivity of mesothelioma cells harboring LATS2 deletion", "setting": "[5]", "value": "sensitive"}, {"measurement": "Activity retained in conditioned media", "setting": "[6]; conditioned media from Panc02.13 cells after 5 days", "value": 96.7, "unit": "%"}, {"measurement": "Lability in culture media", "setting": "[6]; culture media", "value": "not labile"}]}]}
